This note sets out measurements from article PMC2695604 (2009).

For the test, the target named is isoleucyl-tRNA synthetase (IleRS) (Escherichia coli, UniProt P00956). The experiment in a line: affinity labeling with saturation kinetics of inactivation. It counts as biochemical.
Sequence of isoleucyl-tRNA synthetase (IleRS) (P00956 2-938): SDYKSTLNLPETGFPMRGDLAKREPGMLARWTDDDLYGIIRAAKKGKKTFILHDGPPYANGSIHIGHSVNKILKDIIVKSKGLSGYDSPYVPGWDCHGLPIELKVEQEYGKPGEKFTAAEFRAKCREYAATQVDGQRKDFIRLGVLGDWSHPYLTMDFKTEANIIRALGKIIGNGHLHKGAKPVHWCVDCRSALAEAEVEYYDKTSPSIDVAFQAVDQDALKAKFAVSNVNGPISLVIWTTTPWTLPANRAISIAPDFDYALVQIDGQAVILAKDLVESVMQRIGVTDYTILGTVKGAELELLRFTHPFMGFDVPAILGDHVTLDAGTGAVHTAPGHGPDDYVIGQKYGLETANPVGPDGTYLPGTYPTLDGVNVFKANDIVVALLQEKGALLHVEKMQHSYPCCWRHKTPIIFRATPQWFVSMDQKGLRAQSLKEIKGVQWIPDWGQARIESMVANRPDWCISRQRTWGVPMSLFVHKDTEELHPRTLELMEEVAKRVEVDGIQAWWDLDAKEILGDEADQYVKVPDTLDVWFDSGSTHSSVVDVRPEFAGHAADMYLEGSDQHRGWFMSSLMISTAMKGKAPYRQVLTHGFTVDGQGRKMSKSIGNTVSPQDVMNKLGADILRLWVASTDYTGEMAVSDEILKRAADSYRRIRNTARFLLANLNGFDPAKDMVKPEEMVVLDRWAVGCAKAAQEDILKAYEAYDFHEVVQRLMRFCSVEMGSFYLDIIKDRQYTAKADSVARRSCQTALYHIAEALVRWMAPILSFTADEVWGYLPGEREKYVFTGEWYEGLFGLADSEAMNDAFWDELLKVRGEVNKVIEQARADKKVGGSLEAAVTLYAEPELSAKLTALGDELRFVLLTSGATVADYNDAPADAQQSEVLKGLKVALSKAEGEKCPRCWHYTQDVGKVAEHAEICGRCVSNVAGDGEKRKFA

With `CC[C@H](C)[C@H](N)C(=O)CBr` [IBMK, L-isoleucine bromomethyl ketone], the KI (inactivation) was roughly 100 µM.
